Measured values as given in ChEMBL document CHEMBL3885881, “DrugMatrix”.

Species: Rattus norvegicus
Test: DrugMatrix - Regimen: Daily Repeat
Assay type: toxicity, organism-based, Sprague-Dawley
Set-up: regimen Daily Repeat, gender Male, age 6-8 weeks
Details: in vivo, po, route oral GAVAGE, vehicle .5 % CMC; for ABSOLUTE BASOPHIL / ABSOLUTE EOSINOPHIL / ABSOLUTE LYMPHOCYTE / ABSOLUTE MONOCYTE / ABSOLUTE SEGMENTED NEUTROPHIL / BASOPHIL / EOSINOPHIL / ERYTHROCYTE COUNT / HEMATOCRIT / HEMOGLOBIN / LEUKOCYTE COUNT / LYMPHOCYTE / MEAN CORPUSCULAR HEMOGLOBIN / MEAN CORPUSCULAR HEMOGLOBIN CONCENTRATION / MEAN CORPUSCULAR VOLUME / MONOCYTE / NEUTROPHIL / NUCLEATED RED BLOOD CELLS / PLATELET COUNT: tissue Blood; for ALANINE AMINOTRANSFERASE / ALBUMIN / ALKALINE PHOSPHATASE / ASPARTATE AMINOTRANSFERASE / BLOOD UREA NITROGEN / CARBON DIOXIDE / CHLORIDE / CHOLESTEROL / CREATINE PHOSPHOKINASE / CREATININE / GLUCOSE / LACTATE DEHYDROGENASE / LIPASE / PHOSPHORUS / POTASSIUM / SODIUM / TOTAL BILIRUBIN / TOTAL PROTEIN / URIC ACID: tissue Plasma
[1] = 0 mg/kg, 72 h, dose level Control, time 3 day
[2] = 0 mg/kg, 120 h, dose level Control, time 5 day
[3] = 88 mg/kg, 72 h, dose level Low, time 3 day

## CC(C)[C@H](N)C(=O)OCCOCn1cnc2c(=O)[nH]c(N)nc21 [VALACYCLOVIR]
[1]
  ABSOLUTE BASOPHIL: 0 CELLS/uL
  ABSOLUTE EOSINOPHIL: 171.33 CELLS/uL
  ABSOLUTE LYMPHOCYTE: 13776.5 CELLS/uL
  ABSOLUTE MONOCYTE: 180.83 CELLS/uL
  ABSOLUTE SEGMENTED NEUTROPHIL: 1121.33 CELLS/uL
  BASOPHIL: 0%
  EOSINOPHIL: 1%
  ERYTHROCYTE COUNT: 5.56 x10E6/uL
  HEMATOCRIT: 34.75%
  HEMOGLOBIN: 13.68 G/DL
  LEUKOCYTE COUNT: 15.25 x10E3/uL
  LYMPHOCYTE: 90.17%
  MEAN CORPUSCULAR HEMOGLOBIN: 24.6 pg
  MEAN CORPUSCULAR HEMOGLOBIN CONCENTRATION: 39.4 G/DL
  MEAN CORPUSCULAR VOLUME: 62.48 fL
  MONOCYTE: 1.17%
  NEUTROPHIL: 7.67%
  NUCLEATED RED BLOOD CELLS: 0 /100WBC
  PLATELET COUNT: 1342 x10E3/uL
  ALANINE AMINOTRANSFERASE: 49.67 u/L
  ALBUMIN: 4.15 G/DL
  ALKALINE PHOSPHATASE: 346.83 u/L
  ASPARTATE AMINOTRANSFERASE: 108.17 u/L
  BLOOD UREA NITROGEN: 17.33 mg/dL
  CARBON DIOXIDE: 25 mmol/L
  CHLORIDE: 100.83 MEQ/L
  CHOLESTEROL: 66.83 mg/dL
  CREATINE PHOSPHOKINASE: 788 u/L
  CREATININE: 0.18 mg/dL
  GLUCOSE: 151.67 mg/dL
  LACTATE DEHYDROGENASE: 982.5 u/L
  LIPASE: 10.33 u/L
  PHOSPHORUS: 11.23 mg/dL
  POTASSIUM: 6.37 MEQ/L
  SODIUM: 141.02 MEQ/L
  TOTAL BILIRUBIN: 0.18 mg/dL
  TOTAL PROTEIN: 5.9 G/DL
  URIC ACID: 1.8 mg/dL
[2]
  ABSOLUTE BASOPHIL: 0 CELLS/uL
  ABSOLUTE EOSINOPHIL: 69 CELLS/uL
  ABSOLUTE LYMPHOCYTE: 13632.83 CELLS/uL
  ABSOLUTE MONOCYTE: 139.83 CELLS/uL
  ABSOLUTE SEGMENTED NEUTROPHIL: 1225 CELLS/uL
  BASOPHIL: 0%
  EOSINOPHIL: 0.33%
  ERYTHROCYTE COUNT: 5.52 x10E6/uL
  HEMATOCRIT: 33.98%
  HEMOGLOBIN: 13.22 G/DL
  LEUKOCYTE COUNT: 15.07 x10E3/uL
  LYMPHOCYTE: 90.83%
  MEAN CORPUSCULAR HEMOGLOBIN: 23.95 pg
  MEAN CORPUSCULAR HEMOGLOBIN CONCENTRATION: 38.9 G/DL
  MEAN CORPUSCULAR VOLUME: 61.53 fL
  MONOCYTE: 0.83%
  NEUTROPHIL: 8%
  NUCLEATED RED BLOOD CELLS: 0 /100WBC
  PLATELET COUNT: 1196 x10E3/uL
  ALANINE AMINOTRANSFERASE: 49.17 u/L
  ALBUMIN: 4.2 G/DL
  ALKALINE PHOSPHATASE: 352.33 u/L
  ASPARTATE AMINOTRANSFERASE: 89.67 u/L
  BLOOD UREA NITROGEN: 18 mg/dL
  CARBON DIOXIDE: 27.67 mmol/L
  CHLORIDE: 101 MEQ/L
  CHOLESTEROL: 72.83 mg/dL
  CREATINE PHOSPHOKINASE: 417.5 u/L
  CREATININE: 0.18 mg/dL
  GLUCOSE: 150.5 mg/dL
  LACTATE DEHYDROGENASE: 517.33 u/L
  LIPASE: 9 u/L
  PHOSPHORUS: 11.87 mg/dL
  POTASSIUM: 6.57 MEQ/L
  SODIUM: 143.62 MEQ/L
  TOTAL BILIRUBIN: 0.2 mg/dL
  TOTAL PROTEIN: 6.08 G/DL
  URIC ACID: 1.45 mg/dL
[3]
  ABSOLUTE BASOPHIL: 0 CELLS/uL
  ABSOLUTE EOSINOPHIL: 194 CELLS/uL
  ABSOLUTE LYMPHOCYTE: 11636 CELLS/uL
  ABSOLUTE MONOCYTE: 141 CELLS/uL
  ABSOLUTE SEGMENTED NEUTROPHIL: 1129 CELLS/uL
  BASOPHIL: 0%
  EOSINOPHIL: 1.33%
  ERYTHROCYTE COUNT: 5.5 x10E6/uL
  HEMATOCRIT: 34.9%
  HEMOGLOBIN: 13.63 G/DL
  LEUKOCYTE COUNT: 13.1 x10E3/uL
  LYMPHOCYTE: 89.33%
  MEAN CORPUSCULAR HEMOGLOBIN: 24.77 pg
  MEAN CORPUSCULAR HEMOGLOBIN CONCENTRATION: 39.07 G/DL
  MEAN CORPUSCULAR VOLUME: 63.5 fL
  MONOCYTE: 1%
  NEUTROPHIL: 8.33%
  NUCLEATED RED BLOOD CELLS: 0 /100WBC
  PLATELET COUNT: 1139.67 x10E3/uL
